Here are results for 13 compounds from US9199983B2, “3-aryl-6-aryl-[1,2,4]triazolo[4,3-α]pyridines as inhibitors of cell proliferation and the use thereof” (priority 2010, dated 2015).

For test [1], the system named is mouse melanoma cell line B16F10. In words: MTT cancer cell cytotoxicity assay, B16F10. The format is cell-based. Conditions: Mus musculus, B16-F10, B16F10 cells, 48-72 h. How it is done:
Identification of 3-(2-methoxyphenyl)-6-(4-methoxyphenyl)-[1,2,4]triazolo[4,3-a]pyridine and analogs as inhibitors of cell proliferation that were evaluated with standard MTT cancer cell cytotoxicity assay (IC50)
Human lung cancer cell line A549, breast cancer cell line T47D, liver cancer cell lines HepG2 and SMMC7721 as well as a mouse melanoma cell line B16F10 were used in the study. The cells were cultured in corresponding growth media recommended by American Type Culture Collection (ATCC) with the supplementation of penicillin G (100 U/ml)/streptomycin (100 µg/ml), and 10% fetal bovine serum (Hangzhou Sijiqing Biological Engineering Materials, Co., Ltd. China) at 37° C. in a humidified atmosphere containing 5% CO2. Cells at about 80% confluency were harvested by trypsinization. Cells were centrifuged, re-suspended in fresh growth media and counted. Corresponding numbers of cells were seeded to 96-well cell culture plates (HepG2 cell, T-47D and A549 cells at 3000 cells/well, SMMC-7721 cells at 5000 cells/well and B16F10 cells at 2000 cells/well) in a total volume of […]. Cells were incubated in CO2 incubator over night to allow the cells to attach. In next day, […] of medium containing testing (from 10 μM to 1 nM) or reference compounds was added to each well of the cells. Media without compound were used as 100% control. Cells were treated with each concentration of compounds in triplicates to ensure data accuracy. Cells were incubated with compounds in CO2 incubator for an additional 48-72 h at 37° C. After incubation, cells were removed from the CO2 incubator and […] of 5 mg/ml MTT (3-(4,5-dimethylthiazole-2-yl)-2,5-diphenyltetrazoliumbromide, Sigma) solution in PBS was added to each well. Cells were returned to CO2 incubator and incubated for additional 4 h. After the incubation, media were removed by aspiration and […] DMSO was added to each well. Plates were sealed with aluminum foil and shaked mildly on an orbital shaker for 10 min at room temperature. The absorption was measured at 550 nm with a plate reader (Varioskan Flash, Thermo Fisher Scientific) with 660 nm reading used as background control. The relative absorbance readings were calculated by subtracting readings at 660 nm from that at 550 nm. The relative absorbance was plotted again the concentrations of the testing compounds and the plots were fitted with a one-site lg(IC50) equation using Prism 5 software (GraphPad Software, Inc). The equation used in the curve fitting is as follows: relative absorbance reading=background reading+(maximal reading−brackground reading)/(1+10 ^(compound concentration-log IC50)). The background reading used in the calculation was obtained with 100% cell death using a reference anticancer drug, whereas the maximal reading was obtained in the well with no added compound. The IC50 value calculated from the equation represents the cytotoxic potency of a particular compound.

In test [2] the test system is breast cancer cell line T47D. Briefly: MTT cancer cell cytotoxicity assay, T47D. The format is cell-based, human. Conditions: Homo sapiens, T47D cells, 48-72 h. Put shortly: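 Human T47D breast cancer cells, cultured per ATCC recommendations with 10% fetal bovine serum and penicillin/streptomycin, were plated at 3000 cells/well in 96-well plates. After overnight attachment they were exposed in triplicate to compounds (10 μM to 1 nM) for 48-72 h. MTT was then added for 4 h and the formazan dissolved in DMSO. Absorbance at 550 nm minus 660 nm was fitted in Prism 5 to give IC50.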

Test [3] relates to caspase-3 activation. In words: Caspase-3 activation (apoptosis induction) in T-47D cells. Conditions: Homo sapiens; T47D cells, 24 h treatment; read-out: EC50 to induce caspase-3 activation, T47D. Type of test: cell-based. How it is done:
(§1) Identification of 3-(2-methoxyphenyl)-6-(4-methoxyphenyl)-[1,2,4]triazolo[4,3-a]pyridine and analogs as inducers of apoptosis in solid tumor cells
(§2) Human breast cancer cell line T-47D and lung cancer cell line A549, growing in DMEM/F12+10% FBS media were seeded to a density of 20000 cells/well in 96-well cell culture plate and grew overnight (18-24 h) in CO2 cell culture incubator at 37° C. Next day the medium were removed by aspiration and […] fresh growth media was added to each well followed by […] of growth media containing 10× concentration of reference or testing compounds with 10% DMSO. Twenty four hours later, cell culture plates were centrifuged at 1000 g for 5 min and the supernatant was removed by emptying contents into a reservoir. Fifty μl of Lysis Buffer (10 mM Tris, pH7.5, 0.1M NaCl, 1 Mm EDTA, 0.01% Triton X-100) was added to each well and the plates were incubated with gentle agitation on an orbital shaker at 4° C. for 30 min. The plates were then centrifuged at 1000 g for 10 min at 4° C. and 20 μl of the supernatant was transferred from each well to a corresponding well in a black 384-well. Twenty μl of caspase-3 assay buffer (20 mM PIPES, pH7.4, 4 Mm EDTA and 0.2% CHAPS) containing 20 μM fluorogenic caspase-3 substrate ((Ac-DEVD)2-R110, AnaSpec Cat #60304-5) was added to each well. The samples were mixed by agitation and incubated at 37° C. for 3 h. The fluorescent intensity of each well was read on a fluorescent plate reader (Varioskan Flash, Thermo Fisher Scientific) with excitation wavelength at 496 nm and emission wavelength at 520 nm. The activity of compounds on caspase-3 activation was determined by plotting the relative fluorescent unit (RFU) against the testing concentrations of the compounds. The EC50 values were determined by fitting the above responding curves into Prism sigmoidal dose-response equation (GraphPad Software, Inc).

Test [4] has as its system liver cancer cell line HepG2. In words: MTT cancer cell cytotoxicity assay, HepG2. Type of test: cell-based, human. Conditions: Homo sapiens, HepG2 cells, 48-72 h. Put shortly:
(§3)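 Seeding: HepG2 and A549 at 3000, SMMC7721 at 5000, B16F10 at 2000 cells/well, attached overnight. Compounds (10 μM to 1 nM, triplicate) were applied for 48-72 h at 37 °C, followed by 4 h MTT. A550 minus A660 was fitted for IC50, with untreated wells as maximum and reference-drug total kill as background.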

The subject of test [5] is caspase-3 activation. In words: Caspase-3 activation (apoptosis induction) in A549 cells. The format is cell-based. Conditions: Homo sapiens, A-549 cells, 24 h treatment, read-out: EC50 to induce caspase-3 activation, A-549. The method, then: as §1, §2
Test [6] deals with liver cancer cell line SMMC7721. Briefly: MTT cancer cell cytotoxicity assay, SMMC7721. Conditions: Homo sapiens, SMMC-7721, SMMC7721 cells, 48-72 h. The format is cell-based, human. Put shortly: as §3
The test system of test [7] is Human lung cancer cell line A549. Briefly: MTT cancer cell cytotoxicity assay, A549. Conditions: Homo sapiens, A549 cells, 48-72 h. Type of test: cell-based. The procedure, abridged: as §3

Structures can show the parent of a compound that is named as a salt.

A word on the IC50: it is the midpoint of a concentration-inhibition curve. A lower IC50 goes with inhibition by little substance. The term EC50 denotes the concentration that produces a half-maximal response. As to `COc1ccc(-c2ccc3nnc(-c4ccccc4OC)n3c2)cc1C` [Example 5, 6-(4-Methoxy-3-methylphenyl)-3-(2-methoxyphenyl)-[1,2,4]triazolo[4,3-a]pyridine], the IC50 in test [1] was 37 nM; in test [2], 40 nM; in test [4] it was 32 nM; in test [6] it was 11 nM; in test [7] it was 11 nM. The concentration for a half-maximal effect (EC50) in the test on caspase-3 activation [3] was determined as 76 nM; with caspase-3 activation [5], 93 nM.
On to `COc1ccc(-c2ccc3nnc(-c4ccccc4OC)n3c2)cc1N` [Example 46, 6-(3-Amino-4-methoxyphenyl)-3-(2-methoxyphenyl)-[1,2,4]triazolo[4,3-a]pyridine hydrochloride], for which the IC50 in test [1] is 3.7 nM; in test [2], 9.7 nM; in test [4], 9.9 nM; in test [6], 5.7 nM; in test [7] it was 9.4 nM. Moreover, in the test with caspase-3 activation [3], the EC50 stood at 23 nM.
On to `COc1ccc(-c2ccc3nnc(-c4ccc(C)cc4OC)n3c2)cc1O` [Example 51, 6-(3-Hydroxy-4-methoxyphenyl)-3-(2-methoxy-4-methylphenyl)-[1,2,4]triazolo[4,3-a]pyridine], for which the IC50 is 2.1 nM in test [1]; 1.1 nM in test [2]; 1.1 nM in test [4]; more than 10000 nM in test [6]; 4 nM in test [7]. In addition, the concentration giving a half-maximal response (EC50) with caspase-3 activation [3] worked out at 2.8 nM.
`COc1ccc(-c2ccc3nnc(-c4ccc(Cl)cc4OC)n3c2)cc1N` [Example 50, 6-(3-Amino-4-methoxyphenyl)-3-(4-chloro-2-methoxyphenyl)-[1,2,4]triazolo[4,3-a]pyridine]: the concentration for half-maximal inhibition (IC50) worked out at 1.6 nM in test [1]; 1.1 nM in test [2]; 1.4 nM in test [4]; 1.3 nM in test [6]; 1.7 nM in test [7]. Further, the 50% effective concentration (EC50) with caspase-3 activation [3] stood at 3.5 nM.
For the compound `COc1ccc(-c2ccc3nnc(-c4ccc([N+](=O)[O-])cc4OC)n3c2)cc1` [Example 70, 3-(2-Methoxy-4-nitrophenyl)-6-(4-methoxyphenyl)-[1,2,4]triazolo[4,3-a]pyridine], the half-inhibitory concentration (IC50) in test [1] worked out at 4.4 nM; in test [2], 13 nM; in test [4], 22 nM; in test [6], 9.9 nM; in test [7], 6.7 nM. In the test on caspase-3 activation [3], the 50% effective concentration (EC50) was found to be 22 nM.
In the case of `COc1ccc(-c2ccc3nnc(-c4ccc(Cl)cc4OC)n3c2)cc1O` [Example 89, 3-(4-Chloro-2-methoxyphenyl)-6-(3-hydroxy-4-methoxyphenyl)-[1,2,4]triazolo[4,3-a]pyridine], the IC50 in test [1] was 1.1 nM; in test [2], 0.84 nM; in test [4], 1.4 nM; in test [6], more than 10000 nM; in test [7] it was 1.6 nM. Also, the EC50 with caspase-3 activation [3] was found to be 2.3 nM.
Regarding `COc1ccc(-c2ccc3nnc(-c4ccc(C)cc4OC)n3c2)cc1N` [Example 52, 6-(3-Amino-4-methoxyphenyl)-3-(2-methoxy-4-methylphenyl)-[1,2,4]triazolo[4,3-a]pyridine], the IC50 came out at 2.1 nM in test [1]; 2 nM in test [2]; 2.3 nM in test [4]; 1.8 nM in test [6]; 2.6 nM in test [7]. In addition, the concentration for a half-maximal effect (EC50) in the test with caspase-3 activation [3] was 5.4 nM.
For the compound `COc1ccc(-c2ccc3nnc(-c4ccc(C)cc4OC)n3c2)cc1F` [Example 53, 6-(3-Fluoro-4-methoxyphenyl)-3-(2-methoxy-4-methylphenyl)-[1,2,4]triazolo[4,3-a]pyridine], the IC50 in test [1] came to 6.2 nM; in test [2] it was 6.7 nM; in test [4], 5.7 nM; in test [6], 8.3 nM; in test [7], 7.4 nM. Also, the concentration for a half-maximal effect (EC50) in the test on caspase-3 activation [3] turned out to be 9.1 nM.
`COc1ccc(-c2ccc3nnc(-c4ccc(OC)cc4OC)n3c2)cc1` [Example 71, 3-(2,4-Dimethoxyphenyl)-6-(4-methoxyphenyl)-[1,2,4]triazolo[4,3-a]pyridine]: the 50% inhibitory concentration (IC50) in test [2] turned out to be 22 nM; in test [4], 15 nM; in test [6], 8.7 nM; in test [7], 16 nM. The concentration giving a half-maximal response (EC50) in the test on caspase-3 activation [3] worked out at 117 nM.
As for `COc1ccc(-c2ccc3nnc(-c4ccc(Br)cc4OC)n3c2)cc1` [Example 59, 3-(4-Bromo-2-methoxyphenyl)-6-(4-methoxyphenyl)-[1,2,4]triazolo[4,3-a]pyridine], the IC50 in test [1] is 6.1 nM; in test [2], 6.6 nM; in test [4], 7.1 nM; in test [6] it was 3.8 nM; in test [7], 12 nM. In addition, in the test with caspase-3 activation [3], the 50% effective concentration (EC50) was determined as 25 nM.
In the case of `COc1ccc(-c2ccc3nnc(-c4ccccc4OC)n3c2)cc1O` [Example 20, 6-(3-Hydroxy-4-methoxyphenyl)-3-(2-methoxyphenyl)-[1,2,4]triazolo[4,3-a]pyridine], the IC50 in test [1] is 18 nM; in test [2], 18 nM; in test [4] it was 11 nM; in test [6], more than 10000 nM; in test [7], 13 nM. In addition, the EC50 in the test with caspase-3 activation [3] was 16 nM.
Take `CNc1ccc(-c2ccc3nnc(-c4ccccc4OC)n3c2)cc1` [Example 48, 6-(4-Methylaminophenyl)-3-(2-methoxyphenyl)-[1,2,4]triazolo[4,3-a]pyridine hydrochloride]: the IC50 in test [2] amounted to 18 nM; in test [4], 31 nM; in test [6] it was 11 nM; in test [7] it was 26 nM. For the same compound, the EC50 with caspase-3 activation [3] is 74 nM.
As to `COc1ccc(-c2ccc3nnc(-c4ccc(Cl)cc4OC)n3c2)cc1F` [Example 49, 3-(4-Chloro-2-methoxyphenyl)-6-(3-fluoro-4-methoxyphenyl)-[1,2,4]triazolo[4,3-a]pyridine], the half-inhibitory concentration (IC50) was 4.9 nM in test [1]; 4.5 nM in test [2]; 3.3 nM in test [4]; 4.6 nM in test [6]; 4.9 nM in test [7]. For the same compound, the concentration giving a half-maximal response (EC50) in the test with caspase-3 activation [3] came out at 9.3 nM.
